Experiments:
Assay type in all cases: physicochemical
[1] = Storage stability under atmospheric conditions at 60-70° C. (by-products, HPLC purity)
Text: The compounds according to the invention and their hydrates can be used for the treatment and prevention of all disorders, which can be treated or prevented by using PPI. In particular, the compounds according to the invention and their hydrates can be used for treating gastric disorders. In this context particular mention should be made of the relatively high stability of compounds according to the invention and their hydrates. […] This relatively high storage stability makes the compounds according to the invention and their hydrates particularly suitable for use in medicaments.

[2] = Storage stability at 70° C. for one week (discolouration, decomposition); details: for stability, discolouration and decomposition on storage: 70° C., one week, identical conditions for both salts
[3] = Dissolution compared with racemic pantoprazole magnesium dihydrate

Row | purity (according to HPLC) before storage ([1]; start value) [%] | purity (according to HPLC) after storage ([1]; storage under atmospheric conditions at 60-70° C.) | stability properties / stable storage form (general statement) ([2]; compared to the sodium salt of (−)-pantoprazole) | sum of by-products on storage ([1]; storage under atmospheric conditions, 60-70° C.) | Structure (SMILES) | stability, discolouration and decomposition on storage [2] | dissolution [3]
1 | 99.5 | 96-97% | does not form a stable storage form | – | COc1ccnc(C[S+]([O-])c2nc3cc(OC(F)F)ccc3[n-]2)c1OC.[Na+] (single isomer, unassigned; (-)) [(−)-pantoprazole sodium] | changes to brown, with formation of considerable amounts of decomposition products | –
2 | – | – | – | remains virtually constant | COc1ccnc(C[S+]([O-])c2nc3cc(OC(F)F)ccc3[n-]2)c1OC.O.[Mg+2].[OH-] (stereo not drawn) [Example 2, Magnesium (−)-{[5-(difluoromethoxy)]-2-[(3,4-dimethoxy-2-pyridinyl)methylsulphinyl]-1H-benzimidazolide}hydroxy monohydrate] | completely stable for one week and shows virtually no discolouration or decomposition | faster dissolution than the racemic pantoprazole magnesium dihydrate

From US20060189590A1, “Alkaline salts of proton pump inhibitors” (priority 2003, published 2006)
